# Values quoted from earlier work as cited in patent US5468754A, “11,7 substituted camptothecin derivatives and formulations of 11,7 substituted camptothecin derivatives and methods for uses thereof” (priority 1994, dated 1995).
# “Also recorded” adds a separate entry of the source. Where two headings read alike, the source gives them in different places.
# What was measured:
# [1] = cited from earlier work
# Breast = details: Clavel et al, 90 min QDx3 Q21 days; cited from earlier work
# Mesothelioma = details: Clavel et al, 90 min QDx3 Q21 days; cited from earlier work
# esophagus = details: Culine et al, 90 min, 150 mg/m2/wk (50-150); cited from earlier work
# cervix = details: cited from earlier work
# renal = details: Culine et al, 90 min, 150 mg/m2/wk (50-150); cited from earlier work
# ovarian = details: Culine et al, 90 min, 150 mg/m2/wk (50-150); cited from earlier work
# Colon Ca = details: cited from earlier work
# [2] = Ohe et al; 120 hr infusion Q3 wks, 40 mg/m2/d (5-40); cited from earlier work
# [3] = cited from earlier work; remark: listed apart in the source
# [4] = tested on: Untreated Non Small Cell Lung Cancer; details: Fukuoka et al; 100 mg/m^2; 73 pts; cited from earlier work
# [5] = tested on: Refractory or Relapsed Small Cell Lung Cancer; details: Masudu et al; 100 mg/m^2 weekly; 16 pts; cited from earlier work
# Small Cell Lung Cancer = details: Negoro et al, 100 mg/m^2/week, 41 pts, cited from earlier work
# Leukemia/Lymphoma = details: Ohono et al, cited from earlier work
# Colon cancer = details: Shimada et al; 100 mg/m^2/week or 150 mg/m^2/Q 2 wks; 17 pts; cited from earlier work
# Cervical cancer = details: Takeuchi et al; 100 mg/m^2 weekly, 150 mg/m^2 weeks; 69 pts; cited from earlier work
# [6] = 5-day continuous intravenous infusion; cited from earlier work
# [7] = patients; cited from earlier work
# [8] = tested on: Topoisomerase I, purified from human colon carcinoma cells; details: cited from earlier work
# [9] = tested on: Topoisomerase I, purified from calf thymus; details: cited from earlier work
# [10] = compared with parent compound camptothecin; cited from earlier work
# [11] = tested on: Human lung cancer cell lines; details: human lung cancer cell lines vs normal cells; cited from earlier work
# [12] = tested on: xenografts of human tumors; details: Kawato et al., nude mice; cited from earlier work
# [13] = compared with parent compound camptothecin; cited from earlier work; remark: listed apart in the source
# [14] = cited from earlier work; remark: listed apart in the source
# [15] = Clavel et al, 90 min, QDx3 Q21 days, 115 mg/m2/d (33-115), 37 pts
# [16] = Culine et al, 90 min, Q21 days, 150 mg/m2/wk (50-150), 59 pts
# [17] = Negoro et al, 30 min infusion weekly, 100 mg/m2 (50-150), 17 pts
# [18] = Ohe et al, 120 hr CI Q3 wks, 40 mg/m2/d (5-40), 36 pts
# [19] = Rothenberg et al, QWx4 Q42 days, 180 mg/m2/wk (50-180), 32 pts
# [20] = Rowinsky et al, 90 min infusion Q21 day, 240 mg/m2 (100-345), 32 pts
# [21] = Negoro et al, Small Cell Lung Cancer, 100 mg/m^2/week
# [22] = Ohono et al, Leukemia/Lymphoma, 62 pts
# [23] = Shimada et al, Colon cancer, 17 pts
# [24] = Takeuchi et al, Cervical cancer, 69 pts
smiles,measurement,setting,value
CCc1c2c(nc3ccc(OC(=O)N4CCC(N5CCCCC5)CC4)cc13)-c1cc3c(c(=O)n1C2)COC(=O)[C@]3(O)CC [CPT-11],Toxicity,[1]; [15],diarrhea; also recorded: nausea; also recorded: vomiting; also recorded: alopecia
same,Toxicity (Dose Limiting Toxicity),[1]; [15],Neutropenia
same,Toxicity,[1]; [16],vomiting; also recorded: alopecia; also recorded: fatigue; also recorded: stomatitis
same,Toxicity (Dose Limiting Toxicity),[1]; [16],Neutropenia; also recorded: diarrhea
same,Toxicity,[1]; [17],N/V and alopecia and liver
same,Toxicity (Dose Limiting Toxicity),[1]; [17],Neutropenia; also recorded: Diarrhea
same,Toxicity,[1]; [18],nausea; also recorded: vomiting; also recorded: thromobo-; also recorded: anemia; also recorded: liver
same,Toxicity (Dose Limiting Toxicity),[1]; [18],Diarrhea
same,"major reported, dose-limiting toxicities",[1]; Phase I and Phase II clinical trials of CPT-11,Neutropenia and diarrhea
same,Toxicity,[1]; [19],Neutropenia; also recorded: nausea; also recorded: vomiting; also recorded: alopecia
same,Toxicity (Dose Limiting Toxicity),[1]; [19],Diarrhea
same,Toxicity,[1]; [20],vomiting and diarrhea and pain and flushing
same,Toxicity (Dose Limiting Toxicity),[1]; [20],Neutropenia
same,Tumor response (partial responses),Breast,1 PR
same,Tumor response (partial responses),Mesothelioma,1 PR
same,Tumor response (partial responses),esophagus,1 PR
same,Tumor response (partial responses),"cervix; Culine et al, cervix, 90 min, 150 mg/m2/wk (50-150)",1 PR
same,Tumor response (partial responses),"cervix; Rowinsky et al, Cervix Ca, 90 min infusion Q21 day, 240 mg/m2 (100-345)",1 PR
same,Tumor response (partial responses),renal,1 PR
same,Tumor response (partial responses),ovarian,1 PR
same,Tumor response (partial responses),"Colon Ca; Rothenberg et al, QWx4 Q42 days, 180 mg/m2/wk (50-180)",2 PRs
same,Tumor response (partial responses),"Colon Ca; Rowinsky et al, 90 min infusion Q21 day, 240 mg/m2 (100-345)",1 PR
same,Tumor response,[2],None
same,Toxicity,"[3]; Fukuoka et al, Untreated Non Small Cell Lung Cancer, 100 mg/m^2",Neutropenia; also recorded: diarrhea; also recorded: nausea; also recorded: vomiting; also recorded: anorexia; also recorded: alopecia
same,pneumonitis,"[3]; Masudu et al, 100 mg/m^2 weekly, 16 pts",12.5%
same,Toxicity,"[3]; Masudu et al, Refractory or Relapsed Small Cell Lung Cancer, 100 mg/m^2 weekly",Neutropenia; also recorded: diarrhea
same,N/V,[3]; [21],61.5%
same,alopecia,[3]; [21],40.0%
same,diarrhea,[3]; [21],53.8%
same,Gastrointestinal,[3]; [22],76%
same,Toxicity,[3]; [22],Thromocytopenia
same,N/V,[3]; [23],35%
same,diarrhea,[3]; [23],24%
same,N/V,[3]; [24],51%
same,alopecia,[3]; [24],38.1%
same,diarrhea,[3]; [24],39.1%
same,RESPONSE (PRs),[4],31.9%
same,"RESPONSE (PRs, patients)",[4],23/72
same,RESPONSE (PRs),[5],47%
same,"RESPONSE (PRs, patients)",[5],7/15
same,RESPONSE,Small Cell Lung Cancer; 2 CRs and 7 PRs,33.3%
same,RESPONSE (CRs),Small Cell Lung Cancer,2 CRs
same,RESPONSE (PRs),Small Cell Lung Cancer,7 PRs
same,RESPONSE (RR),Leukemia/Lymphoma; 20 mg/m^2 bid x7,25 % RR
same,RESPONSE (PR),Leukemia/Lymphoma; 40 mg/m^2 x5,34 % PR
same,RESPONSE,Leukemia/Lymphoma; 200 mg Q3,No resp.
same,RESPONSE,Colon cancer,46%
same,"RESPONSE (PR, patients)",Colon cancer,6/17
same,RESPONSE (CR),Cervical cancer,SCR
same,RESPONSE (PR),Cervical cancer,8 PR
same,RESPONSE (RR),Cervical cancer,23.6%
same,conversion of CPT-11 to SN38,[6],saturable process
same,variability of metabolic conversion of CPT-11 to SN38,[7],large range of interpatient variability; also recorded: varies from patient to patient
same,inhibition of Topoisomerase I,[8],inhibited
same,inhibition of Topoisomerase I,[9],inhibited
same,antitumor activity,[10],retain the significant antitumor activity of the parent compound
same,conversion of CPT-11 to SN38,[11],convert less CPT-11 to SN38 than normal cells
same,sensitivity of human tumors vs their ability to produce SN38,[12],independent of their ability to produce SN38
same,Toxicity,[13],less sporadic toxicities
same,"Fractional amount of lactone species, CPT-11 CpMax Based",[14]; 50 mg/m2 single dose I.V.,0.51
same,"Fractional amount of lactone species, CPT-11 CpMax Based",[14]; 80 mg/m2 single dose I.V.,0.44
same,"Fractional amount of lactone species, CPT-11 CpMax Based",[14]; 100 mg/m2 single dose I.V.,0.53
same,"Fractional amount of lactone species, CPT-11 CpMax Based",[14]; 125 mg/m2 single dose I.V.,0.55
same,"Fractional amount of lactone species, CPT-11 CpMax Based",[14]; 150 mg/m2 single dose I.V.,0.42
same,"Fractional amount of lactone species, CPT-11 CpMax Based",[14]; 180 mg/m2 single dose I.V.,0.42
same,overall fractional concentration of the lactone species,"[14]; through a range of doses, total AUC and CpMax data",fairly constant through a range of doses
